Consider six compounds from patent publication US20060122228A1, “Methods and compositions using immunomodulatory compounds for treatment and management of central nervous system injury” (priority 2004, published 2006).

Data set [1] has as its system IL-10 production. The data set is described as follows: LPS-stimulated production of IL-10 by PBMC. In kind it is cell-based.
Data set [2] relates to IL-1β production. Kind of data set: LPS-stimulated production of IL-1β by PBMC. It is filed as cell-based.
The subject of data set [3] is TNF-α production. As to conditions: LPS-stimulated PBMC, cited from earlier work; for IC50: read-out: IC50 for inhibiting production of TNF-α.
For data set [4], the system named is IL-6 production. Kind of data set: LPS-stimulated production of IL-6 by PBMC. In kind it is cell-based.
Data set [5] relates to TNF-α production. Conditions: LPS-stimulated human whole blood, cited from earlier work; for IC50: read-out: IC50 for inhibiting production of TNF-α.
In data set [6] the test system is IL-2 production. Kind of data set: Augmentation of IL-2 production following TCR activation of PBMC. In kind it is cell-based.
Data set [7] concerns IFN-γ production. The data set is described as follows: Augmentation of IFN-γ production following TCR activation of T-cells. It is filed as cell-based.
Data set [8] relates to TNF-α production. Kind of data set: Inhibition of TNF-α production following LPS-stimulation of human PBMC. In kind it is cell-based.
In data set [9] the test system is T-cells. Kind of data set: Stimulation of T-cell proliferation following primary induction by T-cell receptor (TCR) activation. It is filed as cell-based.
For data set [10] the following is noted: cited from earlier work.
The test system of data set [11] is MM.IS cells. The data set is described as follows: Inhibition of proliferation of MM.IS cells. It is filed as cell-based. As to conditions: read-out: concentration achieving 50% inhibition of proliferation.
Data set [12] concerns Hs Sultan cells. Kind of data set: Inhibition of proliferation of Hs Sultan cells. It is filed as cell-based. Conditions: read-out: concentration achieving 50% inhibition of proliferation.

Where “and” joins values, the source holds several entries; their conditions need not be identical. Equal entries are not always repeated. Where two headings read alike, the source gives them in different places.

Regarding `Nc1cccc2c1CN(C1CCC(=O)NC1=O)C2=O` (stereo not shown) [3-(4-amino-1-oxo-1,3-dihydro-isoindol-2-yl)-piperidine-2,6-dione], the “effect on production of the anti-inflammatory cytokine IL-10” value in data set [1] is listed as “increased production”. In addition, the “effect on LPS-stimulated production of IL-1β” value in [2] is given as “dose-dependent inhibition”. In data set [3], the “IC50 for inhibiting production of TNF-α” value is ~25.9 ng/mL and the IC50 is ~100 nM. The “effect on LPS-stimulated production of IL-6” value in data set [4] was “dose-dependent inhibition”. In addition, in data set [5], the “IC50 for inhibiting production of TNF-α” value is reported as ~103.6 ng/mL and the IC50 is ~480 nM. The “potency relative to thalidomide in augmenting the production of IL-2” value in data set [6] is 50-100 times. Besides, in data set [7], the “potency relative to thalidomide in augmenting the production of IFN-γ” value is reported as 50-100 times. Besides, in data set [8], the “effect on LPS-stimulated production of TNF-α” value was “dose-dependent inhibition”. In addition, the “potency relative to thalidomide in stimulating the proliferation of T-cells” value in [9] is listed as 50-100 times.

Consider `Nc1cccc2c1CN(C1CCC(=O)NC1=O)C2=O` (stereo not shown) [Form B, 3-(4-amino-1-oxo-1,3 dihydro-isoindol-2-yl)-piperidene-2,6-dione], for which the “stability / interconversion in aqueous solvent systems” value in [10] is reported as “converts to Form E”.

With `Nc1cccc2c1CN(C1CCC(=O)NC1=O)C2=O` (stereo not shown) [Form A, 3-(4-amino-1-oxo-1,3 dihydro-isoindol-2-yl)-piperidene-2,6-dione], in data set [10] (anhydrous polymorphs), the “thermodynamic stability among polymorphs” value is “most thermodynamically stable anhydrous polymorph”.

Regarding `O=C1CCC(N2C(=O)c3ccccc3C2=O)C(=O)N1` (stereo not shown) [Thalidomide, thalidomide, reference compound], in data set [3], the “IC50 for inhibiting production of TNF-α” value is ~50200 ng/mL and the IC50 was ~194000 nM.

Take `Nc1cccc2c1C(=O)N(C1CCC(=O)NC1=O)C2=O` (stereo not shown) [4-(amino)-2-(2,6-dioxo(3-piperidyl))-isoindoline-1,3-dione]: the “IC50 for inhibiting production of TNF-α” value in data set [3] is listed as ~6.55 ng/mL; in data set [5], ~6.83 ng/mL. Also, the IC50 in [3] is ~24 nM; in data set [11], 0.00273 µg/mL to 0.0273 µg/mL and 10 nM to 100 nM; in data set [5], ~25 nM; in [12], 0.00273 µg/mL to 0.0273 µg/mL and 10 nM to 100 nM.

Consider `Nc1cccc2c1CN(C1CCC(=O)NC1=O)C2=O` (stereo not shown) [Form E, 3-(4-amino-1-oxo-1,3 dihydro-isoindol-2-yl)-piperidene-2,6-dione], for which, in [10], the “stability / interconversion in aqueous solvent systems” value is recorded as “most stable form”.
